Assay results: US5607926A, “Cephalosporin antibiotics” (Microcide Pharmaceuticals, Inc., priority 1995, dated 1997)
Converted amounts (≈) assume the structure as drawn. Read-outs that look alike come from different tables or passages of the source.

What was measured:
S. aureus ATCC 29213 = test: In vitro antibacterial evaluation, MIC by agar dilution, S. aureus ATCC 29213; type: cell-based; conditions: Staphylococcus aureus, ATCC29213
Method in brief: (§1)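 Agar dilution MIC (μg/mL) on Mueller-Hinton agar following NCCLS: twofold compound series from 128 μg/mL down to ≤0.25 μg/mL, each level in duplicate. Spots of about 10^4 cfu from log-phase cultures were incubated 16-20 h at 35-36 °C. MIC was the lowest concentration inhibiting growth.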

E. coli ATCC 25922 = test: In vitro antibacterial evaluation, MIC by agar dilution, E. coli ATCC 25922; type: cell-based; conditions: Escherichia coli, ATCC25922, read-out: MIC
Method in brief: as §1

[1] = tested on: S. aureus Col8A (Meth^S)(lac^-); test: In vitro antibacterial evaluation, MIC by agar dilution, S. aureus Col8A; type: cell-based; conditions: Staphylococcus aureus
Method in brief: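 Agar dilution per NCCLS (1991): two-fold dilutions from 128 μg/mL down to ≤0.25 μg/mL in Mueller-Hinton agar, each level in duplicate. Spots of about 10^4 cfu of log-phase culture; 16-20 h at 35°-36° C. MIC in μg/ml is the lowest concentration inhibiting growth.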

[2] = tested on: S. aureus 76 (Meth^R)(lac^+); test: In vitro antibacterial evaluation, MIC by agar dilution, S. aureus 76; type: cell-based; conditions: Staphylococcus aureus, read-out: MIC
Method in brief: as §1

S. aureus ATCC 25923 = test: In vitro antibacterial evaluation, MIC by agar dilution, S. aureus ATCC 25923; type: cell-based; conditions: Staphylococcus aureus, ATCC25923
Method in brief: as §1

[3] = tested on: S. epidermidis ATCC 31432; test: In vitro antibacterial evaluation, MIC by agar dilution, S. epidermidis ATCC 31432; type: cell-based; conditions: Staphylococcus epidermidis, ATCC31432
Method in brief: as §1

[4] = tested on: X. maltophilia ATCC 13637; test: In vitro antibacterial evaluation, MIC by agar dilution, X. maltophilia ATCC 13637; type: cell-based; conditions: Stenotrophomonas maltophilia, ATCC13637
Description: (§2) The compounds of the invention were evaluated against several β-lactamresistant bacteria strains by determining the minimum inhibitory concentration (MIC, μg/ml) of each compound with respect to each strain. The MIC, the lowest concentration of antibiotic which inhibits growth of the test organism, was determined by the agar dilution method.
(§3) To determine the MIC for bacterial isolates, the test compound was incorporated in a series of two-fold dilutions into liquified Mueller-Hinton agar. Upon solidification, a number of different bacterial strains were spot inoculated with a replicating device onto the agar surface. […] The procedures used in these studies have been standardized by the National Committee for Clinical Laboratory Standards (NCCLS), as per the NCCLS publication entitled METHODS FOR DILUTION ANTIMICROBIAL SUSCEPTIBILITY TESTS (1991), which is incorporated herein by reference.
(§4) Aliquots of antimicrobial agents were prepared in phosphate buffered saline (PBS) at pH 7.2. Tween 20 or DMSO was used as a solubilizing vehicle as needed. Standard methods of vortexing, sonicating and gentle heat were used to facilitate solubilizing the test agent. Typically, the concentration of the stock solution was 10× that of the highest drug concentration tested. A 1.28 mg/mL stock solution was used with a subsequent highest working concentration of 128 μg/mL. Serial two-fold dilutions were done through ≤0.25 μg/mL. Each drug level was tested in duplicate. Two-fold drug dilutions were done in sterile 50 mL tubes with a final drug volume of 5 mL. Upon the addition of 45 mL of molten agar, a 10-fold dilution resulted. Two, 25 mL. plates were then poured into 15×150 mm square Petri plates with grids and allowed to harden.
(§5) A control plate with a reference drug, either cefotaxime, vancomycin or imipenem, was used as the positive growth control. Stock concentrations of reference antibiotics were prepared and frozen at -80° C. Upon preparation, the control plates were sealed and stored in the refrigerator for up to 1 week prior to use; however, imipenem control plates had to be prepared just prior to use. All test plates were used within 24 hours of preparation.
(§6) Satisfactory results were obtained where the inoculum contained about 10^4 colony forming units (cfu) ±0.5 logs. Starting with pure cultures of the test isolates on agar plates, a few isolated colonies were transferred to a tube of nutrient broth and allowed to grow 4-6 hours at 35°-36° C. to reach log-phase growth. Dropwise addition of the broth culture to PBS was done to match a 0.5 McFarland turbidity standard equal to 10^8 cfu/mL. This was further diluted ten-fold in PBS to reach a working inoculum concentration of 10^7 cfu/mL. When 1 μL of the working inoculum was applied to the agar surface a concentration of about 10^4 cfu per spot was obtained.
(§7) Disposable sterile 1 μL loops were used to inoculate test plates, with each isolate in a designated grid on the agar plate. An alternate method of inoculation involved the use of a replica plater, a device with 48 steel pins allowing the simultaneous inoculation of multiple isolates. After the spots had dried, the plates were incubated at 35°-36° C. for 16-20 hours. Endpoints were assessed as the minimum inhibitory concentration (MIC) of antimicrobial agent.

E. faecalis ATCC 29212 = test: In vitro antibacterial evaluation, MIC by agar dilution, E. faecalis ATCC 29212; type: cell-based; conditions: Enterococcus faecalis, ATCC29212; E. faecalis ATCC 29212; read-out: MIC
Method in brief: as §1

P. aeruginosa ATCC 27853 = test: In vitro antibacterial evaluation, MIC by agar dilution, P. aeruginosa ATCC 27853; type: cell-based; conditions: Pseudomonas aeruginosa, ATCC27853, read-out: MIC
Method in brief: as §1

S. haemolyticus (Meth^R) = test: In vitro antibacterial evaluation, MIC by agar dilution, S. haemolyticus; type: cell-based; conditions: Staphylococcus haemolyticus, read-out: MIC
Method in brief: as §1

E. faecium ATCC 35667 = test: In vitro antibacterial evaluation, MIC by agar dilution, E. faecium ATCC 35667; type: cell-based; conditions: Enterococcus faecium, ATCC35667, read-out: MIC
Method in brief: as §1

[5] = tested on: methicillinsusceptible S. aureus strain ATCC 13709; test: Challenge strain MIC; type: cell-based; conditions: Staphylococcus aureus, ATCC13709, S. aureus ATCC 13709; read-out: Challenge str MIC
Description: as §2, §3, §4, §5, §6, §7
(§8) data reported for challenge with methicillinsusceptible S. aureus strain

[6] = tested on: methicillinsusceptible S. aureus strain ATCC 13709; test: In vivo antibacterial evaluation, murine model for lethal bacteremic peritonitis; set-up: species or system S. aureus in female Swiss-Webster mice; conditions: Staphylococcus aureus, ATCC13709, sc, 72 h, two equal SC doses at challenge and 2 hours later, mice, probit, read-out: ED50
Description: Groups of 5 female Swiss-Webster mice (Simonsen, Gilroy, Calif.) each are challenged by the intraperitoneal (IP) route with ten-fold increments of a bacterial inoculum. This permits calculation of the mean lethal dose (LD50) and the LD100. For preliminary evaluation of a new antibiotic, mice are challenged IP with an LD100 titer of bacteria. In two equal doses administered at the time of bacterial challenge and 2 hours later, groups of 10 mice each are treated subcutaneously with two-fold increments of the test drug and an antibiotic of known efficacy in mice and humans (i.e., positive control). Mice are observed for 72 h. Those alive at 72 h are considered long term survivors. The total drug dose in mg/kg that protects 50% of mice in a group from death is termed the mean protective dose (PD50). PD50 s are similarly determined for several pathogens. The quantitative endpoints for the new drug are then compared with those obtained with reference antibiotics.
Six ten-fold dilutions of inoculum suspended in 0.5 mL of sterilized 7% hog gastric mucin (Sigma) are injected IP in groups of 5 mice each. A control group of 5 mice receive mucin alone. Mice are observed for 72 h. Those alive at 72 h are considered long term survivors. The mean lethal dose (LD50) and 100% lethal dose (LD100) are determined by the probit test.
For antibiotic efficacy studies, mice are challenged IP with bacterial titers that will afford an LD100 for the test strain. In two equal doses administered at the time of bacterial challenge and 2 hours later, groups of 10 mice each are treated by the subcutaneous route (SC) with twofold increments of the test antibiotic; another group is treated similarly with a reference antibiotic of known efficacy in animals and man. Drug doses can range from 0.01 to 512 mg/kg. If the drug is poorly soluble, Tween 20 or propylene glycol will be employed to solubilize the drug. Animals are observed for 72 h. The 50% protective dose (PD50) is calculated in mg/kg by the probit method. The PD50 is the same as the 50% effective dose (ED50) and the 50% curative dose (CD50). Samples of blood from the hearts of all animals that die and from half the mice that survive are cultured on brain-heart infusion agar. Animals that received a protective dosage of the test drug will be alive at 72 h, although they may appear moderately ill to very ill during the observation period. […] Most of these mice will die within 6 to 48 h. Those alive at 72 h will be considered long term survivors.
as §8

[7] = S. aureus ATCC 29213, read-out: MIC
[8] = S. aureus ATCC 25923, read-out: MIC
[9] = S. epidermidis ATCC 31432, read-out: MIC

SMILES	MIC (S. aureus ATCC 29213; [7]) [µg/mL]	MIC (E. coli ATCC 25922) [µg/mL]	MIC [1] [µg/mL]	MIC [2] [µg/mL]	MIC (S. aureus ATCC 25923; [8]) [µg/mL]	MIC [3, 9] [µg/mL]	MIC [4] [µg/mL]	MIC (E. faecalis ATCC 29212) [µg/mL]	MIC (P. aeruginosa ATCC 27853) [µg/mL]	MIC (S. aureus ATCC 29213) [µg/mL]	MIC (S. aureus ATCC 25923) [µg/mL]	MIC [3] [µg/mL]	MIC (S. haemolyticus (Meth^R)) [µg/mL]	MIC (E. faecium ATCC 35667) [µg/mL]	MIC [5] [µg/mL]	ED50 [6] [mg/kg]
O=C(Cc1ccccc1)N[C@@H]1C(=O)N2C(C(=O)O)=C(Sc3ccc4c(c3)oc3ccccc34)CS[C@H]12 [Cmpd 7, (7R)-7-[(Phenylacetyl)amino]-3-(dibenzofuranyl-3-thio)-3-cephem-4-carboxylic acid]	< 0.06	> 32	0.06 (≈ 0.116 µM)	16 (≈ 31 µM)	< 0.06	< 0.06	> 32	1 (≈ 1.94 µM)	> 32	–	–	–	–	–	–	–
O=C(Cc1ccccc1)N[C@@H]1C(=O)N2C(C(=O)O)=C(Sc3ccc(-c4ccccc4)cc3)CS[C@H]12 [Cmpd 8, (7R)-7-[(Phenylacetyl)amino]-3-(4-biphenylthio)-3-cephem-4-carboxylic acid]	–	> 32	< 0.125	> 32	–	–	> 32	4 (≈ 7.96 µM)	> 32	< 0.125	< 0.125	< 0.125	–	–	–	–
O=C(Cc1ccccc1)N[C@@H]1C(=O)N2C(C(=O)O)=C(Sc3cccc(-c4ccccc4)c3)CS[C@H]12 [Cmpd 10, (7R)-7-[(Phenylacetyl)amino]-3-(3-biphenylthio)-3-cephem-4-carboxylic acid]	–	> 32	0.125 (≈ 0.249 µM)	32 (≈ 63.7 µM)	< 0.06	< 0.06	> 32	2 (≈ 3.98 µM)	> 32	0.125 (≈ 0.249 µM)	–	–	–	–	–	–
N#CCC(=O)N[C@@H]1C(=O)N2C(C(=O)O)=C(Sc3ccccc3I)CS[C@H]12 [Cmpd 17, (7R)-7-[(Cyanoacetyl)amino]-3-(o-iodophenylthio)-3-cephem-4-carboxylic acid]	–	> 64	< 0.25	4 (≈ 7.98 µM)	–	–	–	–	–	< 0.25	–	< 0.25	8 (≈ 16 µM)	1 (≈ 1.99 µM)	0.125 (≈ 0.249 µM)	3.41
N#Cc1ccccc1SC1=C(C(=O)O)N2C(=O)[C@@H](NC(=O)Cc3ccccc3)[C@H]2SC1 [Cmpd 41, (7R)-7-[(Phenylacetyl)amino]-3-(2-cyanophenylthio)-3-cephem-4-carboxylic acid]	–	> 32	< 0.25	4 (≈ 8.86 µM)	–	–	–	4 (≈ 8.86 µM)	> 32	–	< 0.25	< 0.25	16 (≈ 35.4 µM)	2 (≈ 4.43 µM)	0.06 (≈ 0.133 µM)	1.13
O=C(Cc1ccccc1)N[C@@H]1C(=O)N2C(C(=O)O)=C(Sc3cccnc3-c3ccccc3)CS[C@H]12 [Cmpd 81, (7R)-7-[(Phenylacetyl)amino]-3-(2-phenylpyridin-3-ylthio)-3-cephem-4-carboxylic acid]	–	> 32	< 0.25	4 (≈ 7.94 µM)	–	–	–	2 (≈ 3.97 µM)	> 32	–	< 0.25	< 0.25	16 (≈ 31.8 µM)	1 (≈ 1.99 µM)	0.125 (≈ 0.248 µM)	8.46
O=C(Cc1ccccc1)N[C@@H]1C(=O)N2C(C(=O)O)=C(Sc3ccnn3-c3ccccc3)CS[C@H]12 [Cmpd 87, (7R)-7-[(Phenylacetyl)amino]-3-(1-N-phenylpyrazol-5-ylthio)-3-cephem-4-carboxylic acid]	–	> 32	< 0.25	4 (≈ 8.12 µM)	–	–	–	2 (≈ 4.06 µM)	> 32	–	< 0.25	< 0.25	16 (≈ 32.5 µM)	1 to 2 (≈ 2.03 to 4.06 µM)	0.06 (≈ 0.122 µM)	1.89
N#CCC(=O)N[C@@H]1C(=O)N2C(C(=O)O)=C(Sc3ccnn3-c3ccccc3)CS[C@H]12 [Cmpd 88, (7R)-7-[(Cyanoacetyl)amino]-3-(1-N-phenylpyrazol-5-ylthio)-3-cephem-4-carboxylic acid]	–	> 32	< 0.25	16 (≈ 36.2 µM)	–	–	–	4 (≈ 9.06 µM)	> 32	–	< 0.25	< 0.25	16 (≈ 36.2 µM)	2 (≈ 4.53 µM)	0.25 (≈ 0.566 µM)	0.31
Nc1nc(/C(=N/OC2CCCC2)C(=O)N[C@@H]2C(=O)N3C(C(=O)O)=C(Sc4ccnn4-c4ccccc4)CS[C@H]23)cs1 [Cmpd 89, (7R)-7-[(Z)-2-(aminothiazol-4-yl)-2-(cyclopentyloxyimino)acetamido]-3-(1-N-phenylpyrazol-5-ylthio)-3-cephem-4-carboxylic acid]	0.5 (≈ 0.817 µM)	2 (≈ 3.27 µM)	0.5 (≈ 0.817 µM)	4 (≈ 6.54 µM)	< 0.25	< 0.25	–	2 (≈ 3.27 µM)	8 (≈ 13.1 µM)	–	–	–	8 (≈ 13.1 µM)	4 (≈ 6.54 µM)	0.5 (≈ 0.817 µM)	> 10
